What is called melting point is the temperature of the solid-liquid transition. A word on the Ki: it is the dissociation constant of the complex between target and ligand, obtained from inhibition or displacement.

Where a name gives a salt, the structure may show the parent alone.

For one series, the target named is T1, human 5-HT6 receptor (Homo sapiens, UniProt P50406).
T1 construct: host or cells: CHO-K1 cells, stably transfected; membranes prepared in house
Description: Human 5-HT6 Receptor Binding Assay ([3H]LSD displacement, scintillation beads). To be noted: membranes of CHO-K1 cells with recombinant human 5-HT6, 4 nM [3H]LSD; Table 1, class symbols; read-out: h5-HT6 (Ki).

T1 sequence (P50406 whole entry): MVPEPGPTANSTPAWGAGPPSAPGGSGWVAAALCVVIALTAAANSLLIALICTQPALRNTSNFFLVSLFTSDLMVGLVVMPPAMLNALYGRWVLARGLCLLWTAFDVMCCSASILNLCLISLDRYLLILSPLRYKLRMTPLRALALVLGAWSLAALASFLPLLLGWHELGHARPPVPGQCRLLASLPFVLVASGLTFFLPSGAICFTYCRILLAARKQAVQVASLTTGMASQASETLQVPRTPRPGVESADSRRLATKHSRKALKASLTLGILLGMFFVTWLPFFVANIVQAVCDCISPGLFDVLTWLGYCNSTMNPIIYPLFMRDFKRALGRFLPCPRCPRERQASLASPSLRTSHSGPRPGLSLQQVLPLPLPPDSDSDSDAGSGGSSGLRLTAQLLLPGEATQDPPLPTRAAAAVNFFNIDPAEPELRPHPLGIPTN

For the compound `CC(C)Oc1cccc(S(=O)(=O)c2ccc3c4c(oc3c2)C2(CCCOC2)NCC4)c1` (racemic) (as salt: HCl) [Example 23, 7-{[3-(propan-2-yloxy)phenyl]sulfonyl}-3,4,5′,6′-tetrahydro-2H,4′H-spiro[1-benzofuro[2,3-c]pyridine-1,3′-pyran]], the melting point was 148 to 155 °C (dec.). The same measure, in the same setting: for `CCC1(C)NCCc2c1oc1cc(S(=O)(=O)c3cccc(F)c3)ccc21` (racemic) (as salt: HCl) [Example 27, 1-ethyl-7-[(3-fluorophenyl)sulfonyl]-1-methyl-1,2,3,4-tetrahydro[1]benzofuro[2,3-c]pyridine] the value was greater than 300 °C. The same measure, in the same setting: the value for `CC1(C2CC2)NCCc2c1oc1cc(S(=O)(=O)c3cccc(F)c3)ccc21` (racemic) (as salt: HCl) [Example 29, 1-cyclopropyl-7-[(3-fluorophenyl)sulfonyl]-1-methyl-1,2,3,4-tetrahydro[1]benzofuro[2,3-c]pyridine] was > 250 °C (dec.); that for `CCOCC1NCCc2c1oc1cc(S(=O)(=O)c3cccc(F)c3)ccc21` (racemic) (as salt: HCl) [Example 33, 1-(ethoxymethyl)-7-[(3-fluorophenyl)sulfonyl]-1,2,3,4-tetrahydro[1]benzofuro[2,3-c]pyridine] was 230 to 250 °C (dec.). `CC(C)CC1(C)NCCc2c1oc1cc(S(=O)(=O)c3cccc(F)c3)ccc21` (racemic) (as salt: HCl) [Example 36, 7-[(3-fluorophenyl)sulfonyl]-1-methyl-1-(2-methylpropyl)-1,2,3,4-tetrahydro[1]benzofuro[2,3-c]pyridine] yielded a melting point of 284 to 286 °C. On the same count and under the same terms, for `CN(C)C(=O)CC1(C)NCCc2c1oc1cc(S(=O)(=O)c3cccc(F)c3)ccc21` (racemic) (as salt: HCl) [Example 40, 2-{7-[(3-fluorophenyl)sulfonyl]-1-methyl-1,2,3,4-tetrahydro[1]benzofuro[2,3-c]pyridin-1-yl}-N,N-dimethylacetamide] the value was 220 to 223 °C; for `CC1(C)CNC(C2CCOCC2)c2oc3cc(S(=O)(=O)c4cccc(F)c4)ccc3c21` (racemic) (as salt: HCl) [Example 45, 7-[(3-fluorophenyl)sulfonyl]-4,4-dimethyl-1-(tetrahydro-2H-pyran-4-yl)-1,2,3,4-tetrahydro[1]benzofuro[2,3-c]pyridine], 248 to 252 °C. The same measure, in the same setting: for `CC1(C)CNC2(CCOC2)c2oc3cc(S(=O)(=O)c4cccc(F)c4)ccc3c21` (racemic) (as salt: HCl) [Example 46, 7-[(3-fluorophenyl)sulfonyl]-4,4-dimethyl-3,4,4′,5′-tetrahydro-2H-spiro[1-benzofuro[2,3-c]pyridine-1,3′-furan]] the value was 263 to 268 °C. `CC1(C)CNC2(CCOCC2)c2oc3cc([S+]([O-])c4cccc(F)c4)ccc3c21` (racemic) (as salt: HCl) [Example 47, 7-[(3-fluorophenyl)sulfinyl]-4,4-dimethyl-2′,3,3′,4,5′,6′-hexahydro-2H-spiro[1-benzofuro[2,3-c]pyridine-1,4′-pyran]] yielded a melting point of 248 to 253 °C. Turning to `O=S(=O)(c1cc(F)cc(F)c1)c1ccc2c3c(oc2c1)C1(CCCOC1)NCC3` (racemic) [Example 24, 7-[(3,5-difluorophenyl)sulfonyl]-3,4,5′,6′-tetrahydro-2H,4′H-spiro[1-benzofuro[2,3-c]pyridine-1,3′-pyran]], the melting point is 85 to 95 °C. The Ki on human 5-HT6 receptor is less than 500 nM. Take `CC(C)Oc1cccc(S(=O)(=O)c2ccc3c(c2)OC2CNCCC32C)c1` (single isomer, unassigned) (as salt: HCl) [Example 20, 4a-methyl-7-{[3-(propan-2-yloxy)phenyl]sulfonyl}-1,2,3,4,4a,9a-hexahydro[1]benzofuro[2,3-c]pyridine]: the melting point was in the range of 184 to 185 °C. For the compound `CC(C)Oc1cccc(S(=O)(=O)c2ccc3c(c2)OC2CNCCC32C)c1` (single isomer, unassigned) (as salt: HCl) [Example 21, 4a-methyl-7-{[3-(propan-2-yloxy)phenyl]sulfonyl}-1,2,3,4,4a,9a-hexahydro[1]benzofuro[2,3-c]pyridine], the melting point was 183 to 184 °C. Regarding `CC(C)Oc1cccc(S(=O)(=O)c2ccc3c4c(oc3c2)C2(CCOC2)NCC4)c1` (single isomer, unassigned) (as salt: HCl) [Example 31, 7-{[3-(propan-2-yloxy)phenyl]sulfonyl}-3,4,4′,5′-tetrahydro-2H-spiro[1-benzofuro[2,3-c]pyridine-1,3′-furan]], the melting point is 261 to 263 °C (dec.).

In the case of `CC(C)Oc1cccc(S(=O)(=O)c2ccc3c4c(oc3c2)C2(CCOC2)NCC4)c1` (single isomer, unassigned) (as salt: HCl) [Example 32, 7-{[3-(propan-2-yloxy)phenyl]sulfonyl}-3,4,4′,5′-tetrahydro-2H-spiro[1-benzofuro[2,3-c]pyridine-1,3′-furan]], the melting point was 259 to 261 °C (dec.). The same measure, in the same setting: the value for `CC(C)Oc1cccc(S(=O)(=O)c2ccc3c4c(oc3c2)C(C)(C(F)F)NCC4)c1` (single isomer, unassigned) (as salt: HCl) [Example 34, 1-(difluoromethyl)-1-methyl-7-{[3-(propan-2-yloxy)phenyl]sulfonyl}-1,2,3,4-tetrahydro[1]benzofuro[2,3-c]pyridine] was 219 to 222 °C; that for `CN(C)C(=O)CC1(C)NCCc2c1oc1cc(S(=O)(=O)c3cccc(F)c3)ccc21` (single isomer, unassigned) (as salt: HCl) [Example 50, 2-{7-[(3-fluorophenyl)sulfonyl]-1-methyl-1,2,3,4-tetrahydro[1]benzofuro[2,3-c]pyridin-1-yl}-N,N-dimethylacetamide] was 230 to 233 °C. With `CC1OCCC12NCCc1c2oc2cc(S(=O)(=O)c3cccc(F)c3)ccc12` (single isomer, unassigned) (as salt: HCl) [Example 59, 7-[(3-Fluorophenyl)sulfonyl]-2′-methyl-3,4,4′,5′-tetrahydro-2H-spiro[1-benzofuro[2,3-c]pyridine-1,3′-furan]], the melting point was 262 to 265 °C. Take `CC1OCCC12NCCc1c2oc2cc(S(=O)(=O)c3cccc(F)c3)ccc12` (single isomer, unassigned) (as salt: HCl) [Example 60, 7-[(3-Fluorophenyl)sulfonyl]-2′-methyl-3,4,4′,5′-tetrahydro-2H-spiro[1-benzofuro[2,3-c]pyridine-1,3′-furan]]: the melting point is 298 to 301 °C (dec.). Take `O=S(=O)(c1cccc(OCC2CCOCC2)c1)c1ccc2c(c1)OC1CNCCC21` (single isomer, unassigned) (as salt: HCl) [Example 548, 7-{[3-(Tetrahydro-2H-pyran-4-ylmethoxy)phenyl]sulfonyl}-1,2,3,4,4a,9a-hexahydro[1]benzofuro[2,3-c]pyridine]: the melting point is 187 to 189 °C.

Compound `O=S(=O)(c1cccc(F)c1)c1ccc2c3c(oc2c1)C1(CCOCC1F)NCC3` (single isomer, unassigned) [Example 55, 3′-Fluoro-7-[(3-fluorophenyl)sulfonyl]-2′,3,3′,4,5′,6′-hexahydro-2H-spiro[1-benzofuro[2,3-c]pyridine-1,4′-pyran]] came in with a melting point of 251 to 260 °C. The Ki on human 5-HT6 receptor is less than 500 nM.

As for `C[C@@H]1CCCN1CCCOc1cc(F)cc(S(=O)(=O)c2ccc3c(c2)OC2CNCCC32)c1` (single isomer, unassigned) [Example 626], the melting point lay in the range of 208 to 212 °C. In addition, at human 5-HT6 receptor, the Ki was greater than 1000 nM.

For the compound `CC1(C(F)F)NCCc2c1oc1cc(S(=O)(=O)c3cccc(F)c3F)ccc21` (single isomer, unassigned; enantiomer 1) (as salt: HCl) [Example 471, 1-(Difluoromethyl)-7-[(2,3-difluorophenyl)sulfonyl]-1-methyl-1,2,3,4-tetrahydro[1]benzofuro[2,3-c]pyridine, enantiomer 1], the melting point lay within 247 to 250 °C. On to `O=S(=O)(c1ccc2c3c(oc2c1)C1(CCOC1)NCC3)c1cccc(F)c1F` (single isomer, unassigned; enantiomer 1) [Example 473, 7-[(2,3-Difluorophenyl)sulfonyl]-3,4,4′,5-tetrahydro-2H-spiro[1-benzofuro[2,3-c]pyridine-1,3′-furan], enantiomer 1], for which the melting point is 269 to 272 °C. Also, the Ki at human 5-HT6 receptor is less than 500 nM. In the case of `CC1(C(F)F)NCCc2c1oc1cc(S(=O)(=O)c3cccc(F)c3F)ccc21` (single isomer, unassigned; enantiomer 2) [Example 472, 1-(Difluoromethyl)-7-[(2,3-difluorophenyl)sulfonyl]-1-methyl-1,2,3,4-tetrahydro[1]benzofuro[2,3-c]pyridine, enantiomer 2], the melting point was 249 to 252 °C. In addition, the Ki at human 5-HT6 receptor is less than 500 nM.

Compound `O=S(=O)(c1cccc(F)c1)c1ccc2c3c(oc2c1)C(CF)(CF)NCC3` [Example 35, 1,1-bis(fluoromethyl)-7-[(3-fluorophenyl)sulfonyl]-1,2,3,4-tetrahydro[1]benzofuro[2,3-c]pyridine] showed a melting point of 154 to 157 °C. Take `O=S(=O)(c1cccc(F)c1)c1ccc2c3c(oc2c1)C1(COC1)NCC3` [Example 48, 7-[(3-fluorophenyl)sulfonyl]-3,4-dihydro-2H-spiro[1-benzofuro[2,3-c]pyridine-1,3′-oxetane]]: the melting point lay in the range of 153 to 155 °C. Also, the Ki on human 5-HT6 receptor is less than 500 nM. For `Cc1cncc(Oc2cccc(S(=O)(=O)c3ccc4c(c3)OC3CNCCC43)c2)n1` (centres unmarked) [Example 63] the same measures were 128 to 130 °C and less than 500 nM. On the same counts, the results for `O=S(=O)(c1ccc2c(c1)OC1CNCCC21)c1c(Cl)cccc1Cl` (centres unmarked) [Example 64] are 222 to 223 °C and less than 500 nM. Consider `O=S(=O)(c1ccc2c(c1)OC1CNCCC21)c1nc2ccccc2s1` (centres unmarked) [Example 65], for which the melting point fell in the range of 195 to 196 °C. Also, the Ki at human 5-HT6 receptor was less than 500 nM.

These data come from patent US8765779B2, “Tricyclic derivatives and their pharmaceutical use and compositions” (Cephalon, Inc., priority 2009, dated 2014).
